Assays:
[1] = test system: hPSC-derived hematopoietic cells (iPSC line RB9-CB1); assay: hPSC-to-hematopoietic differentiation, flow cytometry of HSC-like surface phenotype (Example 2); assay type: cell-based, human; details: for HSC-like phenotype: specificity controls for cAMP, day 14; for concentration required to increase HSC-like phenotype as compared to Forskolin: day 14, representative experiment; for frequency of HSC-like cells after inhibition / hematopoietic cell generation efficiency / blood emergence (CD43): inhibition on day 10 and day 12, analysis day 14
Method: Human iPSC line RB9-CB1 derived from cord blood endothelial cells was cultured on irradiated mouse embryonic fibroblasts (MEFs) in Dulbecco's Modified Eagle Medium:Nutrient Mixture F-12 (DMEM/F12) supplemented with 20% KnockOut-serum replacement (KOSR), 2 mM L-glutamine, 0.1 mM non-essential amino acids, 0.1 mM 2-mercaptoethanol and 10 ng/ml basic fibroblast growth factor, all from Thermo Fischer Scientific Inc. (Waltham, Mass., USA). The cells were incubated in a humidified incubator at […] and 5% CO2.
(§1) Embryoid bodies (EBs) were prepared after incubating the pluripotent stem cell colonies with 2 mg/ml Dispase (Thermo Fischer Scientific Inc.), followed by gentle pipetting. The detached colonies were washed twice with 20% KOSR containing DMEM/F12, before plating in ultra low-adherence suspension culture dishes (Corning Inc., Corning, N.Y., USA) to form EBs for 8 days. During suspension culture, MesoTotal™ HPC/HSC Differentiation System (Primorigen Biosciences, Madison, Wis., USA) was used to specify the EBs towards mesoderm commitment. At day 8, EBs were plated on 0.08 μg/mm2 Matrigel™ (BD Biosciences, Franklin Lakes, N.J., USA) and further differentiation towards hematopoietic cells was carried out till day 14 in MesoTotal medium.
(§2) Application of fresh medium and treatment with 10 μM Forskolin (Stemgent, Cambridge, Mass., USA), 500 μM IBMX (3-isobutyl-1-methylxanthine, Santa Cruz Biotechnology, Dallas, Tex., USA) was carried out at day 10 and day 12 of differentiation. To inhibit PKA and Epac, 50 μM PKA inhibitor (Rp-8-CPT-cAMPS) and 20 μM Epac inhibitor (ESI-09) (both from BIOLOG Life Science Institute, Bremen, Germany) were used (20 min pretreatment followed by cAMP induction) on day 10 and day 12 of differentiation and the cells were analyzed on day 14. To analyze hemogenic endothelium, PKA and Epac were inhibited on day 6 and day 8 and the cells were analyzed on day 10. The distance between center of an EB and outer edge of its cellular spread was analyzed using ImageJ (developed at the National Institutes of Health, USA). Colony Formation Assay

[2] = test system: differentiating human ES/iPS cells; assay: hPS-to-blood differentiation, FACS analysis of hematopoietic subsets (Example 1); assay type: cell-based
[3] = test system: hemogenic endothelium phenotype cells (CD43-CD34+CXCR4-CD73-Vecad+); assay: Hemogenic endothelium phenotype by flow cytometry; assay type: cell-based, human; details: inhibition on day 6 and day 8, analysis day 10; in the absence or presence of Forskolin+IBMX
Method: as §2

[4] = test system: CXCR4 in hPSC-derived hematopoietic cells; assay: CXCR4 surface expression by flow cytometry; assay type: cell-based, human; details: with or without cAMP induction, compared to the control
Method: as §2

[5] = test system: adherent endothelial-like cells of plated EBs; assay: Radial spreading of adherent endothelial-like cells from embryoid bodies (ImageJ); assay type: cell-based, human; details: in the absence or presence of Forskolin+IBMX
Method: as §1, with “At day 8, EBs were plated on 0.08 μg/mm2 Matrigel™ (BD Biosciences, Franklin Lakes, N.J., USA) and further differentiation towards hematopoietic cells was carried out till day 14 in MesoTotal medium.” left out
as §2, with “Colony Formation Assay” left out

[6] = test system: hPSC-derived hematopoietic cells; assay: ROS detection with CellROX Deep Red by flow cytometry; assay type: cell-based, human; details: day 14; versus control
Method: as §2

[7] = test system: hematopoietic cells derived from human ES/iPS cells; assay: Colony forming unit assay in methylcellulose (Example 1); assay type: cell-based
Method: CFU potential of hematopoietic cells after the 14 day differentiation assay was assessed by plating 2×10^4 cells in Methocult […] (Stem Cell Technologies) supplemented with human SCF (25 ng/ml), GM-CSF (50 ng/ml), IL3 (25 ng/ml) and Erythropoietin (5 U/ml). Cells were incubated in a humidified incubator at 37° C., 5% CO2 for 14 days and colonies were quantified by bright-field microscopy.

[8] = test system: human cord blood; details: PGE2-mediated cAMP activation; cited from earlier work
[9] = test system: HSC egress from the BM; details: administration to mice; cited from earlier work
[10] = NE treatment (10 μM, 300 μM) at day 10 and 12, analysis day 14

C=C[C@@]1(C)CC(=O)[C@@H]2[C@@]3(C)CCCC(C)(C)[C@@H]3[C@H](O)[C@H](OC(C)=O)[C@@]2(C)O1 [1,9-dideoxy Forskolin, 1,9-Dideoxyforskolin]
HSC-like phenotype [1]: cannot induce

Nc1ncnc2c1nc(Br)n2[C@@H]1O[C@@H]2COP(=O)(O)O[C@H]2[C@H]1O [8-Br-cAMP, 8-bromo-adenosine-3′,5′-cyclic monophosphate]
concentration required to increase HSC-like phenotype as compared to Forskolin [1]: 10 fold | HSC-like phenotype [1]: upregulated

Cc1ccc(OCC(O)C(C)NC(C)C)c2c1CCC2 (stereo not shown) [ADRB2 antagonist, ICI118,551]
mediation of the norepinephrine effect through ADRB2 ([2]; addition of specific ADRB2 antagonist (ICI118,551 at 20 μM) to NE-treated cultures): unlikely to be mediated through this receptor

CC(C)(C)c1cc(C(=O)C(C#N)=NNc2cccc(Cl)c2)no1 [Epac inhibitor]
hemogenic endothelial fraction [3]: decreased | frequency of HSC-like cells after inhibition [1]: decreased | hematopoietic cell generation efficiency / blood emergence (CD43) [1]: reduced | CXCR4 expression after Epac inhibition [4]: reduced | radial spreading of adherent endothelial-like cells [5]: reduced

CC(C)Cn1c(=O)n(C)c(=O)c2[nH]cnc21 [IBMX, 3-isobutyl-1-methylxanthine]
ROS levels in various hematopoietic phenotypes, including the HSC-like cells [6]: significantly lowered

NC[C@H](O)c1ccc(O)c(O)c1 [NE, Norepinephrine]
HSC-like phenotype in total viable cells ([2]; 300 μM (NE300) at day 10 and day 12, analysis at day 14): significantly increased | frequency of CD34high CD90high endothelial precursors ([2]; NE added at 300 μM): trend for an increase | blood fraction (CD43/45+ in total viable) [2, 10]: unchanged | progenitor fraction (CD34+ in CD43/45+ blood) [2, 10]: unchanged | HSC-like cells in the CD43/45+ blood population ([2]; NE treatment at day 10 and 12, analysis day 14): specifically and significantly upregulated | colony formation (CFU frequency) in methylcellulose ([7]; hematopoietic cells generated with 300 μM (NE300)): significant increase | distribution of colony types ([7]; hematopoietic cells generated with NE): not affected

Nc1ncnc2c1nc(Sc1ccc(Cl)cc1)n2[C@@H]1O[C@@H]2COP(O)(=S)O[C@H]2[C@H]1O (stereo partly shown) [PKA inhibitor, Rp-8-CPT-cAMPS]
hemogenic endothelial fraction [3]: no negative effect | frequency of HSC-like cells after inhibition [1]: no negative effect | hematopoietic cell generation efficiency / blood emergence (CD43) [1]: no negative effect | radial spreading of adherent endothelial-like cells [5]: did not have any effect

CCCCC[C@H](O)/C=C/[C@H]1[C@H](O)CC(=O)[C@@H]1C/C=C\CCCC(=O)O [Prostaglandin E2 (PGE2), Prostaglandin E2]
human cord blood engraftment [8]: enhances

CCCC(=O)Nc1ncnc2c1ncn2[C@@H]1O[C@@H]2COP(=O)(O)O[C@H]2[C@H]1OC(=O)CCC [dibutyryl-cAMP, N6,O2-dibutyrl-adenosine-3′,5′-cyclic monophosphate]
concentration required to increase HSC-like phenotype as compared to Forskolin [1]: 10 fold | HSC-like phenotype [1]: upregulated

CNC[C@H](O)c1ccc(O)c(O)c1 [epinephrine]
HSC egress from the BM [9]: increased

From patent publication US11542473B2, “Methods and compositions for generating hematopoietic cells” (priority 2016, dated 2023)
